According to patent US7902367B2, “Cyclic amino benzoic acid derivative” (Kyorin Pharmaceutical Co., Ltd., priority 2004, dated 2011):

target: T1, human PPARα (Homo sapiens, UniProt Q07869); assay: Activation of transcription of human PPARα (Gal4-PPARα LBD luciferase reporter assay in CHO-K1 cells); assay type: cell-based; settings: CHO-K1 cells cotransfected with Gal4 DNA-binding domain/human PPARα ligand-binding domain receptor plasmid, firefly luciferase reporter and renilla internal standard; 20 hours at 37° C.
T1 construct: expressed in transfected cells; host or cells: CHO-K1 cells
T1 sequence (Q07869 239-466 limits assumed): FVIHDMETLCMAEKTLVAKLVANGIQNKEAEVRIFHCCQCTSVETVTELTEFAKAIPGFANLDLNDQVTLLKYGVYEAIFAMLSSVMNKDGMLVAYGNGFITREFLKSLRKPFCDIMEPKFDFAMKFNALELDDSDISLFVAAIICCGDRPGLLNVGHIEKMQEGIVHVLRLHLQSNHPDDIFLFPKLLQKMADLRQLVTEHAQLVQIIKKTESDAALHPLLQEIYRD
Description: Activation of Transcription of Human Peroxisome Proliferator-Activated Receptor (PPAR) α
CHO-K1 cells cultured in Ham's F12 medium supplemented with 10% fetal calf serum were cotransfected with the following plasmids: A receptor plasmid encoding a fusion protein consisting of the DNA-binding domain of yeast transcription factor Gal4 fused to the ligand-binding domain of human PPARα (Biochemistry, 1993, 32, 5598), a reporter plasmid (STRATAGENE, firefly luciferase reporter plasmid), and a renilla luciferase plasmid for internal standard (Promega). The cotransfection was performed over a 2-hour period by using Lipofectamine (INVITROGEN) in the absence of serum. Subsequently, a test compound was added in Ham's F12 medium supplemented with 10% defatted bovine serum. The cells were then incubated at 37° C. for 20 hours. The activity of each luciferase was then determined and corrected for internal standard.

Row | EC50 | Compound
1 | 65 nM | Cc1nc(-c2ccc(Cl)cc2)sc1C(=O)NCC1CCCN(c2ccccc2C(=O)O)C1 (stereo not shown) [Example 18, 2-[3-[[2-(4-Chlorophenyl)-4-methylthiazol-5-yl]carbonylaminomethyl]piperidin-1-yl]benzoic acid]
2 | 970 nM | Cc1nc(-c2ccc(Cl)cc2)sc1C(=O)NCC1CCCN(c2cccc(C(=O)O)c2)C1 (stereo not shown) [Example 19]
3 | 1360 nM | Cc1nc(-c2ccc(Cl)cc2)sc1CNC(=O)C1CCCN(c2ccccc2C(=O)O)C1 (stereo not shown) [Example 20]
4 | 160 nM | Cc1nc(-c2ccc(Cl)cc2)sc1COCC1CCCN(c2ccccc2C(=O)O)C1 (stereo not shown) [Example 22]
5 | 1540 nM | Cc1nc(-c2ccc(Cl)cc2)sc1COCC1CCCN(c2cccc(C(=O)O)c2)C1 (stereo not shown) [Example 24]
6 | 560 nM | Cc1nc(-c2ccc(Cl)cc2)sc1COC1CCCN(c2cccc(C(=O)O)c2)C1 (stereo not shown) [Example 25]
7 | 20 nM | Cc1nc(-c2ccc(Cl)cc2)sc1C(=O)NC1CCCN(c2cccc(C(=O)O)c2)C1 (stereo not shown) [Example 32]
